In patent publication US20020193320A1, “C-2 modified erythromycin derivatives” (priority 1999, published 2002):

How the values were obtained:
Assay in all cases: In vitro antibacterial activity, agar dilution MIC
Type in all cases: cell-based
Candida albicans CCH 442 = system: Candida albicans CCH 442; design: unit not given here; settings: code TT, BHI agar, 35-37° C., 20 to 24 hours
Method: (§1) Representative compounds of the present invention were assayed in vitro for antibacterial activity as follows: Twelve petri dishes containing successive aqueous dilutions of the test compound mixed with 10 mL of sterilized Brain Heart Infusion (BHI) agar (Difco 0418-01-5) were prepared. Each plate was inoculated with 1:100 (or 1:10 for slow-growing strains, such as Micrococcus and Streptococcus) dilutions of up to 32 different microorganisms, using a Steers replicator block. The inoculated plates were incubated at 35-37° C. for 20 to 24 hours. In addition, a control plate, using BHI agar containing no test compound, was prepared and incubated at the beginning and end of each test.
(§2) An additional plate containing a compound having known susceptibility patterns for the organisms being tested and belonging to the same antibiotic class as the test compound was also prepared and incubated as a further control, as well as to provide test-to-test comparability.
(§3) After incubation, each plate was visually inspected. The minimum inhibitory concentration (MIC) was defined as the lowest concentration of drug yielding no growth, a slight haze, or sparsely isolated colonies on the inoculum spot as compared to the growth control.

[1] = system: Enterococcus faecium ATCC X043; design: unit not given here; settings: code II, BHI agar, 35-37° C., 20 to 24 hours
Method: as §1, §2, §3

Escherichia coli DC-2 = system: Escherichia coli DC-2; design: unit not given here; settings: code SS, BHI agar, 35-37° C., 20 to 24 hours
Method: as §1, §2, §3

Escherichia coli JUHL = system: Escherichia coli JUHL; design: unit not given here; settings: code QQ, BHI agar, 35-37° C., 20 to 24 hours
Method: as §1, §2, §3

Escherichia coli SS = system: Escherichia coli SS; design: unit not given here; settings: code RR, BHI agar, 35-37° C., 20 to 24 hours
Method: as §1, §2, §3

[2] = system: Micrococcus luteus ATCC 9341; design: unit not given here; settings: code OO, BHI agar, 35-37° C., 20 to 24 hours
Method: as §1, §2, §3

[3] = system: Mycobacterium smegmatis ATCC 114; design: unit not given here; settings: code UU, BHI agar, 35-37° C., 20 to 24 hours
Method: as §1, §2, §3

[4] = system: Nocardia Asteroides ATCC 99700; design: unit not given here; settings: code VV, BHI agar, 35-37° C., 20 to 24 hours
Method: as §1, §2, §3

[5] = system: Staphylococcus aureus 1775; design: unit not given here; settings: code GG, BHI agar, 35-37° C., 20 to 24 hours
Method: as §1, §2, §3

[6] = system: Staphylococcus aureus A-5177; design: unit not given here; settings: code BB, BHI agar, 35-37° C., 20 to 24 hours
Method: as §1, §2, §3

[7] = system: Staphylococcus aureus A-5278; design: unit not given here; settings: code CC, BHI agar, 35-37° C., 20 to 24 hours
Method: as §1, §2, §3

[8] = system: Staphylococcus aureus ATCC 6538P; design: unit not given here; settings: code AA, BHI agar, 35-37° C., 20 to 24 hours
Method: as §1, §2, §3

[9] = system: Staphylococcus aureus CMX 553; design: unit not given here; settings: code FF, BHI agar, 35-37° C., 20 to 24 hours
Method: as §1, §2, §3

[10] = system: Staphylococcus aureus CMX 642A; design: unit not given here; settings: code DD, BHI agar, 35-37° C., 20 to 24 hours
Method: as §1, §2, §3

[11] = system: Staphylococcus aureus NCTC 10649M; design: unit not given here; settings: code EE, BHI agar, 35-37° C., 20 to 24 hours
Method: as §1, §2, §3

[12] = system: Staphylococcus epidermidis 3519; design: unit not given here; settings: code HH, BHI agar, 35-37° C., 20 to 24 hours
Method: as §1, §2, §3

[13] = system: Streptococcus agalactiae CMX 508; design: unit not given here; settings: code KK, BHI agar, 35-37° C., 20 to 24 hours
Method: as §1, §2, §3

[14] = system: Streptococcus bovis A-5169; design: unit not given here; settings: code JJ, BHI agar, 35-37° C., 20 to 24 hours
Method: as §1, §2, §3

[15] = system: Streptococcus pyogenes 930; design: unit not given here; settings: code MM, BHI agar, 35-37° C., 20 to 24 hours
Method: as §1, §2, §3

[16] = system: Streptococcus pyogenes PIU 2548; design: unit not given here; settings: code NN, BHI agar, 35-37° C., 20 to 24 hours
Method: as §1, §2, §3

[17] = system: Haemophilis Influenzae DILL AMP R; settings: code WW, 35-37° C., 20 to 24 hours
Method: as §1, §2, §3

[18] = system: Micrococcus luteus ATCC 4698; settings: code PP, BHI agar, 35-37° C., 20 to 24 hours
Method: as §1, §2, §3

[19] = system: Streptococcus pyogenes EES61; settings: code LL, BHI agar, 35-37° C., 20 to 24 hours
Method: as §1, §2, §3

[20] = system: Streptococcus Pneumonia 5649; settings: code ZZA (code list: ZA), 35-37° C., 20 to 24 hours
Method: as §1, §2, §3

[21] = system: Streptococcus Pneumonia 5979; settings: code ZZ, 35-37° C., 20 to 24 hours, unit assumed
Method: as §1, §2, §3

[22] = system: Streptococcus Pneumonia ATCC 6303; settings: code XX, 35-37° C., 20 to 24 hours
Method: as §1, §2, §3

[23] = system: Streptococcus Pneumonia GYR 1171; settings: code YY, 35-37° C., 20 to 24 hours
Method: as §1, §2, §3

Compound | Antibacterial Activity (MIC) (Candida albicans CCH 442) | Antibacterial Activity (MIC) [1] | Antibacterial Activity (MIC) (Escherichia coli DC-2) | Antibacterial Activity (MIC) (Escherichia coli JUHL) | Antibacterial Activity (MIC) (Escherichia coli SS) | Antibacterial Activity (MIC) [2] | Antibacterial Activity (MIC) [3] | Antibacterial Activity (MIC) [4] | Antibacterial Activity (MIC) [5] | Antibacterial Activity (MIC) [6] | Antibacterial Activity (MIC) [7] | Antibacterial Activity (MIC) [8] | Antibacterial Activity (MIC) [9] | Antibacterial Activity (MIC) [10] | Antibacterial Activity (MIC) [11] | Antibacterial Activity (MIC) [12] | Antibacterial Activity (MIC) [13] | Antibacterial Activity (MIC) [14] | Antibacterial Activity (MIC) [15] | Antibacterial Activity (MIC) [16] | other results
CCC1OC(=O)C(C)(O)C(=O)C(C)C(OC2OC(C)CC(N(C)C)C2O)C(C)(OC)CC(C)C(=O)C(C)C2N(CCCCc3ccccc3)C(=O)OC12C (stereo not shown) [Example 10, Compound of formula (II): R^a is CH3, R^b is H, Y and Z together are O, T is —N(W(R^g))-, W is —(CH2)p-, p is 4, R^g is phenyl R is —OH] | 25 | 0.39 | >100 | >100 | 3.1 | 0.39 | 1.56 | 1.56 | 25 | 1.56 | 25 | 1.56 | 1.56 | 1.56 | 1.56 | 1.56 | 0.2 | 0.2 | 6.2 | 1.56 | Antibacterial Activity (MIC) ([17]; unit assumed): 16 µg/mL; Antibacterial Activity (MIC) [18]: 0.39; Antibacterial Activity (MIC) [19]: 0.2
Compound of formula (II): R^a is CH3, R^b is H, Y and Z together are O, T is —N(W(R^g)-, W is —(CH2)p-, p is 4, R^g is phenyl, R is —OH [Example 2] | 100 | 0.39 | >100 | >100 | 6.2 | 0.39 | 3.1 | 3.1 | 100 | 1.56 | 100 | 1.56 | 1.56 | 3.1 | 1.56 | 3.1 | 0.2 | 0.2 | 25 | 0.39 | Antibacterial Activity (MIC) ([17]; unit assumed): 64 µg/mL; Antibacterial Activity (MIC) ([18]; unit assumed): 0.78 µg/mL; Antibacterial Activity (MIC) ([20]; unit assumed): 1 µg/mL; Antibacterial Activity (MIC) [21]: 32 µg/mL; Antibacterial Activity (MIC) ([22]; unit assumed): 0.5 µg/mL; Antibacterial Activity (MIC) ([23]; unit assumed): 0.25 µg/mL; Antibacterial Activity (MIC) ([19]; unit assumed): 0.1 µg/mL
CC[C@H]1OC(=O)[C@H](C)[C@@H](O[C@H]2C[C@@](C)(OC)[C@@H](O)[C@H](C)O2)[C@H](C)[C@@H](O[C@@H]2O[C@H](C)C[C@H](N(C)C)[C@H]2O)[C@](C)(O)C[C@@H](C)C(=O)[C@H](C)[C@@H](O)[C@]1(C)O [Ery. A, Erythromycin A, reference compound] | >100 | 0.05 | >100 | >100 | 0.78 | 0.05 | 3.1 | 0.1 | >100 | 3.1 | >100 | 0.2 | 0.39 | 0.39 | 0.39 | 0.39 | 0.05 | 0.02 | >100 | 6.2 | Antibacterial Activity (MIC) [17]: 4; Antibacterial Activity (MIC) [18]: 0.2; Antibacterial Activity (MIC) [20]: 16; Antibacterial Activity (MIC) [22]: 0.06; Antibacterial Activity (MIC) [23]: 0.06; Antibacterial Activity (MIC) [19]: 0.05
